{"source": "paper PMC11794677", "about": "“Self‐Assembly of a Conjugate of Lipoic Acid With a Collagen‐Stimulating Pentapeptide Showing Cytocompatibility and Wound Healing Properties, and Chemical and Photolytic Disassembly” (Journal of Peptide Science, 2025)", "key": {"[1]": {"assay": "CAC assay with fluorescent probe thioflavin T (ThT)", "format": "physicochemical", "conditions": "ThT fluorescence peak intensity (λem = 448 nm) vs concentration", "protocol": "Before considering biocompatibility and bioactivity of lipoyl‐KTTKS, we examined whether this lipopeptide has a critical aggregation concentration (CAC) above which it forms self‐assembled aggregate structures. Based on our previous work on KTTKS‐lipopeptides, β‐sheet formation of lipoyl‐KTTKS is likely to be favoured. Therefore a CAC assay using the fluorescent probe thioflavin T (ThT) which is sensitive to β‐sheet formation was performed. The ThT fluorescence peak intensity was monitored as a function of concentration, and the results are shown in Figure 1 and indicate a CAC value (0.5 ± 0.1) wt% from the intersection of the straight lines at low and high concentrations, or (0.67 ± 0.06) wt% as the midpoint of a fitted Boltzmann‐type sigmoidal function: I=A2+A1−A2/1+expc−c1/2/σ\nFIGURE 1 CAC assay plotting fluorescence intensity of ThT (λ em = 448 nm) as a function of concentration. […] The black lines provide a linear intercept estimate of CAC.\nHere, I is the fluorescence intensity (at λ em = 448 nm), A 1 and A 2 are constants, c is the lipopeptide concentration, c 1/2 is the mid‐point concentration, and σ is the width parameter."}, "[2]": {"assay": "SANS form factor fits (core-shell cylinder); further: values in Å", "format": "physicochemical", "conditions": "3 wt% in D2O, 25°C, long cylindrical shell form factor", "protocol": "Measurements were performed using the LOQ instrument at ISIS Neutron and Muon Source, Oxfordshire, UK. LOQ operates in time‐of‐flight mode, with a wavelength range from 2.7 to 10.5 Å. Two detectors recorded simultaneously small and wide scattering merged in a typical range of wavenumbers q = 0.006 Å^−1 to 1.2 Å^−1. The main detector was fixed at 4 m from the sample, and the size of the beam was 8 mm diameter at the sample position. The samples were placed in quartz cuvettes and arranged on a multislot sample changer with temperature controlled by a thermal bath at 25°C. The background was subtracted and the scattering intensity normalized to the absolute scale cross calibrating with a polystyrene standard. Data reduction was performed using Mantid.\nCryo‐TEM was used to probe potential aggregation in solution above the CAC (3 wt% aqueous solution). […] The presence of such structures was also confirmed by SAXS and SANS data (Figure 3), which reveal form factor features that can be fitted using a core‐shell cylinder form factor, consistent with extended fibril structures. The cylinder radius is 25 Å, which is approximately equal to the estimated length of the molecule considering the lipid chain plus a pentapeptide in a β‐sheet conformation. […]"}, "[3]": {"assay": "Cryo-TEM of aggregation in solution", "format": "physicochemical", "conditions": "3 wt% aqueous solution, above the CAC", "description": "Cryo‐TEM was used to probe potential aggregation in solution above the CAC (3 wt% aqueous solution). […] The presence of such structures was also confirmed by SAXS and SANS data (Figure 3), which reveal form factor features that can be fitted using a core‐shell cylinder form factor, consistent with extended fibril structures. The cylinder radius is 25 Å, which is approximately equal to the estimated length of the molecule considering the lipid chain plus a pentapeptide in a β‐sheet conformation. […] For the SAXS data, it was necessary to include a contribution in the fits from unaggregated peptide, which gives rise to scattering at high q, described using a generalized Gaussian coil form factor (generalized refers to allowing the Flory exponent for the coil to vary from the value ν = 0.5 for an unperturbed coil). SANS data for 3 wt% solutions of lipoyl‐KTTKS in D2O can be fitted to a core‐shell cylinder form factor, consistent with SAXS, with fit parameters listed in Table S1. It was not necessary to allow for unaggregated monomer in fitting the SANS data, which may be because of the higher background and/or altered scattering contrast compared with SAXS. The cylinder radius and shell thickness obtained from the fits to the SANS data are in excellent agreement with the parameters obtained from the SAXS fit.\nFIGURE 2 Cryo‐TEM image from a 3‐wt% aqueous solution of lipoyl‐KTTKS."}, "RAW 264.7 cells": {"test_system": "RAW 264.7 cells", "assay": "Nitrite (inflammation) assay with Griess reagent", "format": "cell-based", "conditions": "2 μg LPS, 24 h, different concentrations, absorbance 550 nm, ANOVA with Bonferroni correction", "protocol": "To detect nitrite, the Griess reagent assay was used, following protocols described previously. Amounts 5 × 10^3 RAW 264.7 cells were seeded in a 96‐well plate and incubated for 24 h inside the cell incubator. After 24 h, the cells were washed three times with PBS and incubated in 100 μL of DMEM + 2 μg of LPS (lipopolysaccharide) for 24 h. After incubation in the presence of LPS, 100 μL of Griess reagent solution was added to each well and incubated for 10 min at room temperature. The resulting absorbance was measured at 550 nm using an Infinite F50 microplate reader (TECAN, Switzerland).\nThe Griess reagent assay was used as an indirect measure of the production of nitrite ions, an important species related to inflammation, by monitoring the presence of nitrites in media via colorimetric (UV‐vis absorbance) measurements. The assay was performed by incubating the cells in DMEM containing 2 μg of LPS with different concentrations of lipoyl‐KTTKS. Controls containing only LPS and RAW cells incubated in DMEM without LPS were also prepared."}, "[4]": {"test_system": "procollagen type I carboxy-terminal peptide (PIP)", "conditions": "cited from earlier work", "description": "Here, we investigate the structural properties, biocompatibility and collagen‐stimulating activity of a novel peptide amphiphile comprising a conjugate of lipoic acid to pentapeptide KTTKS, termed lipoyl‐KTTKS (Scheme 1). […] This can be contrasted with previous reported data f ..."}, "[5]": {"conditions": "cited from earlier work", "description": "(§1) Here, we investigate the structural properties, biocompatibility and collagen‐stimulating activity of a novel peptide amphiphile comprising a conjugate of lipoic acid to pentapeptide KTTKS, termed lipoyl‐KTTKS (Scheme 1)."}, "[6]": {"test_system": "UV-induced collagenase (MMP-1)", "conditions": "cited from earlier work", "description": "as §1"}, "melanin synthesis": {"test_system": "melanin synthesis", "conditions": "cited from earlier work", "description": "as §1"}, "tyrosinase": {"test_system": "tyrosinase", "conditions": "cited from earlier work", "description": "as §1"}}, "data": [{"substance": "lipoyl‐KTTKS [peptide amphiphile comprising a conjugate of lipoic acid to pentapeptide KTTKS]", "values": [{"measurement": "CAC (critical aggregation concentration) from intersection of straight lines", "setting": "[1]; intersection of straight lines at low and high concentrations", "result": "0.5 ± 0.1", "unit": "wt%"}, {"measurement": "CAC as midpoint of fitted Boltzmann-type sigmoidal function", "setting": "[1]; midpoint c1/2 of sigmoidal fit", "result": "0.67 ± 0.06", "unit": "wt%"}, {"measurement": "L length", "setting": "[2]", "result": 800, "unit": "Å"}, {"measurement": "t shell thickness", "setting": "[2]", "result": 9.10, "unit": "Å"}, {"measurement": "Aggregate structure seen by cryo-TEM", "setting": "[3]", "result": "short curly fibrils"}, {"measurement": "Production of nitrites compared with cells incubated only in DMEM (without LPS)", "setting": "RAW 264.7 cells; n = 3", "result": "statistically significant increase"}, {"measurement": "Production of nitrites compared with cells incubated only in DMEM (without LPS)", "setting": "RAW 264.7 cells; n = 3, listed as lipoyl‐KTKKS", "result": "increase"}, {"measurement": "Increase in collagen synthesis compared with negative control", "setting": "[4]; 0.038 wt% (0.5 mM) sample, enzyme immunoassay of PIP, single data point", "result": 65, "unit": "%"}, {"measurement": "Collagen synthesis relative to control and KTTKS", "setting": "[4]", "result": "superior to control and KTTKS itself"}, {"measurement": "Cytocompatibility", "setting": "[5]", "result": "good cytocompatibility"}, {"measurement": "Effect on UV-induced collagenase (MMP-1) activity", "setting": "[6]", "result": "inhibits"}, {"measurement": "Effect on melanin synthesis", "setting": "melanin synthesis", "result": "inhibits"}, {"measurement": "Effect on tyrosinase activity", "setting": "tyrosinase", "result": "inhibits"}]}]}
